PMC10122656, “Siglec-6 mediates the uptake of extracellular vesicles through a noncanonical glycolipid binding pocket” (Nature Communications, 2023)
Positions count from the first letter of the chain named. Several values for one entry are separate records, joined by “and”; a condition that tells them apart may be missing. Identical values can stand only once.

How the values were obtained:
Test in all cases: Cell assay (liposome/EV binding, flow cytometry)
Type in all cases: cell-based
Siglec-15 WT CHO cells = molecular target: T1, Siglec-15 WT CHO cells (Homo sapiens, UniProt Q6ZMC9, K274L); conditions: Sig-15 WT; 3 mol% ganglioside liposomes; replicates
T1 construct: expressed in transfected cells
T1 sequence (Q6ZMC9 20-328 K274L): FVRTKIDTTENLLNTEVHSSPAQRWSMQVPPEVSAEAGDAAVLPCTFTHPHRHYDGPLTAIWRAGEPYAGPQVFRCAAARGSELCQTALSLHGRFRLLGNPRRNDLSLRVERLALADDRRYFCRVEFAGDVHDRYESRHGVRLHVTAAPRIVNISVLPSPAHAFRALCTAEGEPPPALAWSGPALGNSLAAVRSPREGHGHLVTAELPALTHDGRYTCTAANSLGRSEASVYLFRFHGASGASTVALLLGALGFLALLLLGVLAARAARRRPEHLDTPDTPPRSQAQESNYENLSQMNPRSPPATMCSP
Summary of the method: (§1)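 Cells are incubated for 30 min at 37 °C with ligand-displaying liposomes (50 µM lipid) or EVs (50 µg/mL protein) in DMEM F12 containing 5% FBS. After washing and anti-Siglec staining on ice, liposome binding is quantified by flow cytometry within the Siglec-positive population.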

R122A Siglec-6 CHO cells = molecular target: T2, R122A Siglec-6 CHO cells (Homo sapiens, UniProt O43699, R122A); conditions: Sig-6 R122A; 3 mol% ganglioside liposomes; replicates
T2 construct: expressed in transfected cells
T2 sequence (O43699 27-453 R122A): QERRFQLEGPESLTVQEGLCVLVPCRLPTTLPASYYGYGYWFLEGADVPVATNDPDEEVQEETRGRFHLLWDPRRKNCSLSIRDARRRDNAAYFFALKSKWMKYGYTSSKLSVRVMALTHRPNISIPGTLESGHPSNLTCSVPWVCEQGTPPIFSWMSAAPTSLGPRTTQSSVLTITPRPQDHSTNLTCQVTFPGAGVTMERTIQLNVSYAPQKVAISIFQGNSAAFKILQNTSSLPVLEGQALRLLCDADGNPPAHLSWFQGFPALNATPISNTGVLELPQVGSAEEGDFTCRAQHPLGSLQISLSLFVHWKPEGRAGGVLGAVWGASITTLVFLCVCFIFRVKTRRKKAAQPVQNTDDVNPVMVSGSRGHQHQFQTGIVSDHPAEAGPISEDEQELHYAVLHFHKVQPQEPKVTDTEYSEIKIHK
Summary of the method: (§2)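 Extruded PEGylated DSPC/cholesterol liposomes (100 nm filter; 130 ± 35 nm) bearing Siglec ligand and AF647 lipids. Cells + 50 µM liposome or 50 µg/mL EV, DMEM F12/5% FBS, 37 °C, 30 min; washed; anti-Siglec 1:250, ice 30 min; flow, Siglec+ gate.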

Siglec-10 WT CHO cells = molecular target: T3, Siglec-10 WT CHO cells (Homo sapiens, UniProt Q96LC7); conditions: Sig-10 WT; 3 mol% ganglioside liposomes; replicates
T3 construct: expressed in transfected cells
T3 sequence (Q96LC7 17-697): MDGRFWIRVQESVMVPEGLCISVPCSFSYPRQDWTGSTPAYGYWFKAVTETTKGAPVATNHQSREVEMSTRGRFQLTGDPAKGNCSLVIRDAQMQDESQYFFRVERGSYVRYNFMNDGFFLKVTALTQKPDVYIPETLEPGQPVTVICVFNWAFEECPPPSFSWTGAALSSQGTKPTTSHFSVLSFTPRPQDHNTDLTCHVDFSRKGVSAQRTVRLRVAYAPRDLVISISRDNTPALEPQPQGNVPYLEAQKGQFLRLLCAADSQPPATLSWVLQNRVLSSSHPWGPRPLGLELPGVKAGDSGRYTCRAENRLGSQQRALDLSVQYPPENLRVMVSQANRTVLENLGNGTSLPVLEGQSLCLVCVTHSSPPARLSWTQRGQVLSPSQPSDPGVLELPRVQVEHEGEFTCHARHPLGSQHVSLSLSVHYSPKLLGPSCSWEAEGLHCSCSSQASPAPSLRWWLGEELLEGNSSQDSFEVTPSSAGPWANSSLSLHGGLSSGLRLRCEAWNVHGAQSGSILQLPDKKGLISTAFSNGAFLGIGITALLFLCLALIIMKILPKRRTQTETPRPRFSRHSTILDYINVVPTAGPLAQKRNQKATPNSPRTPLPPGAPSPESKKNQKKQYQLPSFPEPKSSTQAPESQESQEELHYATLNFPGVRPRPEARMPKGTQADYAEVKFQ
Summary of the method: as §2

[1] = molecular target: T4, Siglec-15 R143A CHO cells (Homo sapiens, UniProt Q6ZMC9, K274L/R143A); conditions: Sig-15 R143A; 3 mol% ganglioside liposomes; replicates
T4 construct: expressed in transfected cells
T4 sequence (Q6ZMC9 20-328 R143A/K274L): T1 sequence (Q6ZMC9 20-328 K274L) with R124A
Summary of the method: as §1

Siglec-1 R116A CHO cells = molecular target: T5, Siglec-1 R116A CHO cells (Homo sapiens, UniProt Q9BZZ2, R116A); conditions: Sig-1 R116A; 3 mol% ganglioside liposomes; replicates
T5 construct: expressed in transfected cells
T5 sequence (Q9BZZ2 20-1709 R116A): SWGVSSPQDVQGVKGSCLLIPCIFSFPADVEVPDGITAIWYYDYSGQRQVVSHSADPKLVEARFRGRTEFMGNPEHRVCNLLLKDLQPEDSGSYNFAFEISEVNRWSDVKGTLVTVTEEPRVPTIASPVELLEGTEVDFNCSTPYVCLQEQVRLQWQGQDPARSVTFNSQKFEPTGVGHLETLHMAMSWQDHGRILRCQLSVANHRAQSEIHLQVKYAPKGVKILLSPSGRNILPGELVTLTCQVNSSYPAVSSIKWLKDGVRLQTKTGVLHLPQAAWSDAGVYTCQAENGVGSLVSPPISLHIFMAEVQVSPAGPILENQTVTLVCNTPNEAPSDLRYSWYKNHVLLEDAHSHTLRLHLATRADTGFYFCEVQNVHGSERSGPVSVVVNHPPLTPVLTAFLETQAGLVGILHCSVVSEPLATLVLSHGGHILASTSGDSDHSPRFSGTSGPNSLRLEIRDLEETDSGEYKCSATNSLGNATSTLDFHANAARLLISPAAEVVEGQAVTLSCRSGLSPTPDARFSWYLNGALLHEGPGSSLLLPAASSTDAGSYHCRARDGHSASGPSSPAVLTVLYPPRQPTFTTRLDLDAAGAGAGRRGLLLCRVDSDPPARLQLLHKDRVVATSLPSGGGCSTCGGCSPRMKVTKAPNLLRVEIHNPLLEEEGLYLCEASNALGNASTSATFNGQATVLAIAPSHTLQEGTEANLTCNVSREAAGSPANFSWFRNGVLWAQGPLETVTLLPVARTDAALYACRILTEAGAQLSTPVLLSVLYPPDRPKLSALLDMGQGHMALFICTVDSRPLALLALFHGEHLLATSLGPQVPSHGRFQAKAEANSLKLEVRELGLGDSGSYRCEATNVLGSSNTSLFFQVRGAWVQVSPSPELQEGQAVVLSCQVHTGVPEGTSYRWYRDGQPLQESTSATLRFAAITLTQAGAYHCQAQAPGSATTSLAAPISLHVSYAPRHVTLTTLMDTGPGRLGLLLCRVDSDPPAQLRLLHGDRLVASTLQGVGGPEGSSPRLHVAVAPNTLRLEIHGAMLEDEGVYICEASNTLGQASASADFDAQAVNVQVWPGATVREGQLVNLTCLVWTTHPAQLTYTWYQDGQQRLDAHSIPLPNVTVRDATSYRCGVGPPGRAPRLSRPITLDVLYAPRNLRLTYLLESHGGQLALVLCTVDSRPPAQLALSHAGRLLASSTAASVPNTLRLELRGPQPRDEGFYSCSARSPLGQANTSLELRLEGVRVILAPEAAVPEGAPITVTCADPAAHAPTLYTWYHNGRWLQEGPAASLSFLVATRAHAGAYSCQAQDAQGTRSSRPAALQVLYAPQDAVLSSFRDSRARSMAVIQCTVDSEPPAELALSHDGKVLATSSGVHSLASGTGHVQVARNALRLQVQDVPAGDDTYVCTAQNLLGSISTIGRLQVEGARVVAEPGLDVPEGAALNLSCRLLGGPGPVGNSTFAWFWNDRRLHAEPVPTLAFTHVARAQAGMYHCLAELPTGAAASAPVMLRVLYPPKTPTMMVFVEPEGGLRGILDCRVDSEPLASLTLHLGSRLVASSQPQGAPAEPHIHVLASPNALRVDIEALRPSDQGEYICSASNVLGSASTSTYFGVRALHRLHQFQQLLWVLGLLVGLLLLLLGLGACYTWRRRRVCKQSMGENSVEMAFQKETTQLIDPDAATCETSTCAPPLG
Summary of the method: as §2

CD33 R119A CHO cells = molecular target: T6, CD33 R119A CHO cells (Homo sapiens, UniProt P20138, R119A); conditions: 3 mol% ganglioside liposomes, replicates
T6 construct: expressed in transfected cells
T6 sequence (P20138 18-364 R119A): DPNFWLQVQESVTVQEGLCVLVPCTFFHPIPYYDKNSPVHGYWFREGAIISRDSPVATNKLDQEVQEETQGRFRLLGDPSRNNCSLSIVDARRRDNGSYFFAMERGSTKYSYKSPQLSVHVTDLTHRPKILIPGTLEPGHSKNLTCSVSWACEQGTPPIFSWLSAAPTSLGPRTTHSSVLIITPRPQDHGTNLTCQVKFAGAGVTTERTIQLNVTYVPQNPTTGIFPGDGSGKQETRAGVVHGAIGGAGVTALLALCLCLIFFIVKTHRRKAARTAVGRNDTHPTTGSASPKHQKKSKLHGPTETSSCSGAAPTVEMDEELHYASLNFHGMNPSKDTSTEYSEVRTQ
Summary of the method: as §1

| Substance | log10(MFI AF647) of GLL relative to log10(MFI AF647) of the same GLL against UT CHO cells (Fig. 2a) (Siglec-15 WT CHO cells) | log10(MFI AF647) of GLL relative to log10(MFI AF647) of the same GLL against UT CHO cells (Fig. 2a) (R122A Siglec-6 CHO cells) | log10(MFI AF647) of GLL relative to log10(MFI AF647) of the same GLL against UT CHO cells (Fig. 2a) (Siglec-10 WT CHO cells) | log10(MFI AF647) of GLL relative to log10(MFI AF647) of the same GLL against UT CHO cells (Fig. 2a) [1] | log10(MFI AF647) of GLL relative to log10(MFI AF647) of the same GLL against UT CHO cells (Fig. 2a) (Siglec-1 R116A CHO cells) | log10(MFI AF647) of GLL relative to log10(MFI AF647) of the same GLL against UT CHO cells (Fig. 2a) (CD33 R119A CHO cells) |
| --- | --- | --- | --- | --- | --- | --- |
| GM2 | -0.07 and -0.05 and -0.03 (2×) | 0.01 | 0.23 and 0.24 and 0.22 and 0.18 | -0.02 (2×) and -0.04 and -0.03 | -0.08 and -0.1 (2×) and -0.07 | -0.01 and 0 and 0.03 (2×) |
| GM3 | -0.12 and -0.09 (2×) and -0.1 | -0.11 (2×) and -0.14 (2×) | -0.09 (2×) and -0.02 and -0.08 | -0.11 (2×) and -0.12 (2×) | -0.19 and -0.23 and -0.18 and -0.21 | -0.06 (2×) and -0.03 (2×) |
| GM4 | -0.1 and -0.08 (2×) and -0.07 | 0 | 0.2 and 0.21 (3×) | -0.08 and -0.09 and -0.11 and -0.1 | -0.09 and -0.12 and -0.06 and -0.1 | -0.05 (2×) and -0.02 (2×) |
| GQ1b | -0.13 and -0.12 (2×) and -0.17 | 0.46 and 0.48 and 0.4 and 0.42 | 0.23 and 0.24 and 0.22 and 0.21 | -0.11 (2×) and -0.12 and -0.08 | -0.29 and -0.27 and -0.24 and -0.3 | -0.11 (2×) and -0.1 and -0.09 |
| GT1b | -0.04 (3×) and -0.01 | 0.72 and 0.7 and 0.61 and 0.69 | 0.42 (2×) and 0.4 and 0.39 | -0.03 and -0.06 and -0.05 (2×) | -0.14 (2×) and -0.15 and -0.1 | -0.06 |
